# Data reported in the supplement of paper PMC10307832.
# Experiments:
# Assay in all cases: relative viability (nuclei count vs DMSO), 5 days (fraction); higher = more cells survive
# [1] = compound: CC1=NN=C(O1)C2=NN=C(C=C2)N3CCC(CC3)OC4=C(C=CC(=C4)F)Cl + CC(=O)Nc1cccc(-n2c(=O)n(C3CC3)c(=O)c3c(Nc4ccc(I)cc4F)n(C)c(=O)c(C)c32)c1 [Trametinib] (partner 0.02 µM)
# Procedure, shortened: (§1)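 Medians of duplicate plates are given as relative viability. That measure is the nuclei count in treated wells divided by the count in vehicle wells. Counts were taken on 4× images of lung cancer cell lines in 1536-well plates, 5 days after pin-tool dosing the day after seeding with one drug alone or a fixed anchor-drug dose plus five library-drug doses (not always all listed) in √10 steps.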
# [2] = compound: CC1=NN=C(O1)C2=NN=C(C=C2)N3CCC(CC3)OC4=C(C=CC(=C4)F)Cl + O=C(CCCCCCC(=O)Nc1ccccc1)NO [Vorinostat] (partner 1 µM)
# Procedure, shortened: as §1
# Tosedostat + Phenformin = compound: CC(C)C[C@@H](C(=O)N[C@H](C(=O)OC1CCCC1)c1ccccc1)[C@H](O)C(=O)NO [Tosedostat] + N=C(N)NC(=N)NCCc1ccccc1 [Phenformin] (partner 250 µM)
# Procedure, shortened: as §1
# [3] = compound: CC1=NN=C(O1)C2=NN=C(C=C2)N3CCC(CC3)OC4=C(C=CC(=C4)F)Cl + CS(=O)(=O)N1CCN(Cc2cc3nc(-c4cccc5[nH]ncc45)nc(N4CCOCC4)c3s2)CC1 [Pictilisib] (partner 1 µM)
# Procedure, shortened: as §1
Cell Line,relative viability ([1]; first compound 0.253 µM),relative viability ([1]; first compound 0.8 µM),relative viability ([1]; first compound 2.53 µM),relative viability ([1]; first compound 8 µM),relative viability ([2]; first compound 0.253 µM),relative viability ([2]; first compound 0.8 µM),relative viability ([2]; first compound 2.53 µM),relative viability ([2]; first compound 8 µM),relative viability (Tosedostat + Phenformin; first compound 0.02 µM),relative viability (Tosedostat + Phenformin; first compound 0.06325 µM),relative viability (Tosedostat + Phenformin; first compound 0.2 µM),relative viability (Tosedostat + Phenformin; first compound 0.6325 µM),relative viability (Tosedostat + Phenformin; first compound 2 µM),relative viability ([3]; first compound 0.8 µM),relative viability ([3]; first compound 2.53 µM),relative viability ([3]; first compound 8 µM),relative viability ([3]; first compound 0.253 µM)
NCI-H596,0.687,0.811,0.714,0.692,0.474,0.564,0.6,0.567,0.734,0.762,0.761,0.72,0.599,0.352,0.366,0.363,–
NCI-H647,0.287,0.5,0.45,0.297,0.204,0.136,0.0766,0.0534,0.56,0.506,0.45,0.434,0.39,0.552,0.392,0.391,0.398
NCI-H650,0.933,0.874,0.934,0.862,0.451,0.248,0.294,0.329,0.497,0.478,0.435,0.442,0.405,0.775,0.47,0.889,0.869
NCI-H661,0.489,0.472,0.429,0.379,0.802,0.745,0.702,0.629,0.259,0.259,0.312,0.304,0.265,0.367,0.376,0.366,0.386
NCI-H727,0.467,0.402,0.385,0.341,1.16,1.02,1.38,1.22,0.705,0.485,–,0.442,0.397,0.4,0.498,0.403,0.475
NCI-H838,0.406,0.429,0.478,0.428,0.583,0.599,0.607,0.623,0.489,0.56,0.519,0.659,0.711,0.459,0.442,0.416,0.422
NCI-H1355,0.317,0.379,0.374,0.371,0.405,0.478,0.625,0.558,0.43,0.445,0.457,0.38,0.377,–,0.453,0.374,–
NCI-H1395,0.963,0.978,0.89,1,0.656,0.563,0.671,0.593,0.418,0.424,0.419,0.41,0.446,0.597,0.567,0.549,0.565
NCI-H1437,0.391,0.367,0.491,0.375,0.492,0.491,0.523,0.376,0.28,0.28,0.295,0.332,0.299,0.426,0.447,0.386,0.556
NCI-H1650,0.352,0.482,0.481,0.49,0.323,0.289,0.37,0.333,0.484,0.501,0.399,0.399,0.281,0.588,0.554,0.561,–
NCI-H1651,0.651,0.621,0.609,0.576,0.431,0.241,0.389,0.336,0.324,0.328,0.293,0.267,0.306,0.665,0.524,0.417,0.506
NCI-H1666,0.764,0.761,0.834,0.834,0.735,0.862,0.868,0.864,0.547,0.527,0.554,0.612,0.567,0.414,0.456,0.313,0.276
NCI-H1734,0.642,0.652,0.663,0.597,0.721,0.692,0.721,0.737,0.453,0.399,0.393,0.372,0.345,0.404,0.421,0.355,0.451
NCI-H1755,0.619,0.659,0.645,0.643,0.538,0.553,0.611,0.538,0.599,0.574,0.571,0.602,0.406,0.383,0.398,0.387,0.382
NCI-H1793,0.434,0.511,0.509,0.403,0.683,0.567,0.79,0.666,0.252,0.321,0.284,0.31,0.203,0.312,0.31,0.347,0.307
NCI-H1915,0.293,0.267,0.277,0.239,0.457,0.219,0.401,0.325,0.374,0.366,0.365,0.35,0.358,0.586,0.698,0.563,0.763
NCI-H1944,0.339,0.324,0.37,0.342,0.349,0.329,0.427,0.393,0.21,0.194,0.217,0.196,0.211,0.381,0.381,0.331,0.31
NCI-H1975,0.171,0.307,0.373,0.385,0.606,0.643,0.629,0.619,0.4,0.401,0.412,0.342,0.375,0.332,0.411,0.402,–
